Among the test systems are SNB-19 CNS; OVCAR-3 ovarian; HCT-15 colon; MDA-MB-231 breast; MOLT-4 leukemia; HCC-2998 colon; BT-549 breast.
Assay in all cases: NCI tumour cell line growth inhibition, 48 h

The values that follow come from PubChem BioAssay (NCI).

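Briefly, cells in 96-well plates were exposed to five compound concentrations for 48 h, and endpoints were estimated by linear interpolation. GI50 = concentration required for 50% inhibition of growth. TGI marks complete inhibition of growth.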 Where only a bound is given, the exact number is not on record here.

For the compound `N#C/C(=C/C=C/c1cccc(Cl)c1)S(=O)c1ccccc1` (stereo not drawn), the GI50 in the experiment on SNB-19 CNS was 0.684 µM; in the experiment on OVCAR-3 ovarian, 0.253 µM; in the experiment with HCT-15 colon, 0.197 µM; in the experiment with MDA-MB-231 breast, 0.384 µM; in the experiment with MOLT-4 leukemia it was 0.307 µM; in the experiment with HCC-2998 colon it was 0.366 µM. In addition, the TGI was found to be 2.52 µM in the experiment on SNB-19 CNS; 0.782 µM with OVCAR-3 ovarian; 0.56 µM in the experiment with HCT-15 colon; 1.4 µM in the experiment with MDA-MB-231 breast; 2.28 µM in the experiment with MOLT-4 leukemia; 1.31 µM with HCC-2998 colon.

As to `COc1ccc(CN2c3ccccc3Sc3ccccc32)cc1O`, the GI50 was 0.773 µM with BT-549 breast; 0.771 µM in the experiment with SNB-19 CNS; 0.369 µM with HCT-15 colon; 0.668 µM with MDA-MB-231 breast; 0.42 µM with MOLT-4 leukemia; 0.422 µM with HCC-2998 colon. Besides, the TGI with BT-549 breast was determined as 17.1 µM; in the experiment with SNB-19 CNS it was 26.9 µM; in the experiment with HCT-15 colon, 11.8 µM; with MDA-MB-231 breast, 18.1 µM; in the experiment on MOLT-4 leukemia, 22.4 µM; in the experiment on HCC-2998 colon it was 10.7 µM.

As to `COc1ccc(-c2cn3ccnc3c(-c3ccc(Cl)cc3)n2)cc1`, the GI50 was 16.5 µM in the experiment on BT-549 breast; 14.4 µM with SNB-19 CNS; 3.19 µM in the experiment with OVCAR-3 ovarian; 3.16 µM with HCT-15 colon; 4.13 µM in the experiment on MDA-MB-231 breast; 4.9 µM with MOLT-4 leukemia. For the same compound, the TGI with BT-549 breast is more than 100 µM; in the experiment on SNB-19 CNS it was more than 100 µM; with OVCAR-3 ovarian it was 71.8 µM; with HCT-15 colon it was more than 100 µM; with MDA-MB-231 breast it was 55.9 µM; in the experiment with MOLT-4 leukemia it was more than 100 µM.

`O=C(O)CCN1C(=S)CSC1=S`: the TGI with BT-549 breast, in the experiment on SNB-19 CNS, with OVCAR-3 ovarian, in the experiment with HCT-15 colon, in the experiment on MDA-MB-231 breast and in the experiment with MOLT-4 leukemia was more than 100 µM in each case.

For the compound `O=C1c2ccccc2-c2c1c1ccccc1c(=O)n2CCNCCNCCNCCNCCn1c2c(c3ccccc3c1=O)C(=O)c1ccccc1-2`, the GI50 was 0.334 µM with BT-549 breast; 1.45 µM with OVCAR-3 ovarian; 0.568 µM in the experiment with HCT-15 colon; 0.0846 µM in the experiment with MDA-MB-231 breast; less than 0.0191 µM in the experiment with MOLT-4 leukemia. For the same compound, the TGI in the experiment on BT-549 breast amounted to 1.62 µM; with OVCAR-3 ovarian, 4.96 µM; with HCT-15 colon, 2.56 µM; in the experiment with MDA-MB-231 breast, 1.6 µM.

For `COC(=O)c1c(C(=O)O)c(-c2ccccc2)c(-c2ccccc2)c(-c2ccccc2)c1-c1ccccc1`, the GI50 with BT-549 breast is more than 100 µM; with SNB-19 CNS it was 23.1 µM; with OVCAR-3 ovarian, more than 100 µM; in the experiment on HCT-15 colon, more than 100 µM; in the experiment on MDA-MB-231 breast, more than 100 µM; in the experiment on MOLT-4 leukemia it was more than 100 µM. For the same compound, the TGI with BT-549 breast, in the experiment on SNB-19 CNS, in the experiment on OVCAR-3 ovarian, in the experiment with HCT-15 colon, in the experiment on MDA-MB-231 breast and with MOLT-4 leukemia was more than 100 µM throughout.

Turning to `CSC(=S)NCc1cn(C)c2ccccc12`, the GI50 was 20 µM in the experiment with BT-549 breast; 40.3 µM with SNB-19 CNS; 23.4 µM with OVCAR-3 ovarian; 26.8 µM in the experiment on HCT-15 colon; 15.4 µM with MDA-MB-231 breast; 25.1 µM in the experiment on HCC-2998 colon. Further, the TGI with BT-549 breast is 54.2 µM; in the experiment with SNB-19 CNS, more than 100 µM; in the experiment on OVCAR-3 ovarian, 80.4 µM; in the experiment on HCT-15 colon it was more than 100 µM; with MDA-MB-231 breast it was 44.5 µM; with HCC-2998 colon, 98.7 µM.

Take `COc1cc(C2CC(c3ccc(Cl)cc3)=NN2C(C)=O)ccc1Oc1ccnc2cc(Cl)ccc12` (stereo not drawn): the GI50 is 1.4 µM with BT-549 breast; more than 100 µM with SNB-19 CNS; more than 100 µM in the experiment on HCT-15 colon; more than 100 µM in the experiment with MOLT-4 leukemia; more than 100 µM with HCC-2998 colon. Besides, the TGI in the experiment on BT-549 breast, with SNB-19 CNS, in the experiment on HCT-15 colon, in the experiment on MOLT-4 leukemia and in the experiment with HCC-2998 colon was more than 100 µM throughout.

With `Cc1cc(C)c(-c2c(O)c(Br)c(-c3c(C)cc(C)c(Br)c3C)c(O)c2Br)c(C)c1Br`, the GI50 in the experiment with BT-549 breast was 2.25 µM; with OVCAR-3 ovarian, 2.33 µM; with HCT-15 colon, 2.51 µM; in the experiment on MDA-MB-231 breast, 1.65 µM; with MOLT-4 leukemia, 2.39 µM; with HCC-2998 colon it was 2.67 µM. Further, the TGI in the experiment on BT-549 breast came out at 10.5 µM; in the experiment with OVCAR-3 ovarian it was 10.8 µM; with HCT-15 colon, 10.8 µM; in the experiment on MDA-MB-231 breast, 4.42 µM; in the experiment with MOLT-4 leukemia, 13 µM; in the experiment on HCC-2998 colon, 7.31 µM.

Take `C[C@]12CCC3c4ccc(O)cc4CCC3C1CC[C@@H]2NC(=O)/C=C/c1ccc(O)c(O)c1` (stereo partly drawn): the GI50 in the experiment on SNB-19 CNS is 13.7 µM; with OVCAR-3 ovarian, 21.5 µM; in the experiment on HCT-15 colon, 4.89 µM; in the experiment with MDA-MB-231 breast it was 14.5 µM; in the experiment with MOLT-4 leukemia, 3.34 µM; in the experiment with HCC-2998 colon, 15.6 µM. Further, the TGI with SNB-19 CNS stood at 33.9 µM; in the experiment with OVCAR-3 ovarian, 48.7 µM; in the experiment with HCT-15 colon, 19 µM; in the experiment on MDA-MB-231 breast, 33.6 µM; in the experiment on MOLT-4 leukemia, 24 µM; in the experiment with HCC-2998 colon it was 30.3 µM.

Turning to `O=C(OCC1=CC(=O)c2ccccc2C1=O)c1ccccc1`, the GI50 with BT-549 breast is 13.8 µM; in the experiment with SNB-19 CNS, 10.3 µM; in the experiment with OVCAR-3 ovarian it was 3.47 µM; with HCT-15 colon it was 10.6 µM; in the experiment on MDA-MB-231 breast, 14.3 µM; in the experiment on HCC-2998 colon, 6.14 µM. Besides, the TGI in the experiment with BT-549 breast stood at 27 µM; in the experiment with SNB-19 CNS it was 22.4 µM; in the experiment on OVCAR-3 ovarian it was 18.7 µM; in the experiment on HCT-15 colon, 29.5 µM; in the experiment with MDA-MB-231 breast it was 28.5 µM; in the experiment with HCC-2998 colon, 18.8 µM.

On to `Cc1cc(C)nc(NC(=O)COc2ccc(Cl)cc2)c1`, for which the TGI in the experiment on BT-549 breast, with SNB-19 CNS, with OVCAR-3 ovarian, in the experiment with HCT-15 colon, in the experiment with MDA-MB-231 breast and with MOLT-4 leukemia was more than 100 µM throughout.

For `CCOC1=C/C(=N\Nc2ccc([N+](=O)[O-])cc2)CCC1`, the TGI in the experiment with BT-549 breast is 43.8 µM; with SNB-19 CNS, more than 100 µM; in the experiment on OVCAR-3 ovarian it was more than 100 µM; in the experiment on HCT-15 colon, 57.3 µM; with MDA-MB-231 breast it was 84.6 µM; with MOLT-4 leukemia, more than 100 µM.
